Reference: patent US4150970A, “Growth regulator for plants” (Board of Trustees of Michigan State University, priority 1977, dated 1979)

Legend:
[1] = system: oat first-internode; settings: published reports; cited from earlier work
[2] = system: plants; assay: Plant growth regulation (general statement); format: in vivo; settings: analogous compounds
[3] = system: tobacco callus; assay: Growth of tobacco callus, triacontanol and octocosanol (Example XIX, FIG. 6); format: cell-based, Nicotiana tabacum, var. Wisconsin 38; settings: four concentrations, 10 days
Protocol: Cell cultures were separately grown in disposable petri dishes.
1. Haploid tobacco (Nicotiana tabacum, var. Wisconsin 38)
The cultures were grown on the basic medium of mineral salts described by Linsmaier and Skoog (Physiol. Plant, […] (1965)). Vitamins and hormones varied for each tissue (Table X-1) to maintain the tissues in an undifferentiated state. For all of the tissues inositol was 100 mg/liter and agar 1%. Sucrose was 3% for all but the bean which was 2%.
Callus was produced from pith for tobacco, potato and tomato. Bean callus was produced from hypocotyl sections and barley callus from immature ovarian tissue. Subcultures were maintained on the appropriate media.
Stock solutions of triacontanol were prepared at a concentration of 100 μg/ml. The solvent used was glass distilled benzene. The lower concentrations were obtained by serial dilutions. Treatments were applied to 4.5 cm Whatman #1 filter paper disks in 100 μl aliquots. Controls received 100 μl of glass distilled benzene. The solvent was evaporated for approximately 15 minutes and the filter papers were then placed on the agar medium.
Callus tissue was then broken into pieces of approximately the same size (10 mg) and placed in the petri dishes on the treated filter paper (one piece per dish). For experiments conducted in the light the intensity was approximately 2.0 microwatts/cm^2 -namometer. Fresh weight measurements were made after 12 days of growth.
A stock solution of octocosanol (CH3 (CH2)26 CH2 OH was prepared in the same manner as the triacontanol solutions above described.
The effect of four concentrations of triacontanol and octocosanol on tobacco callus was determined, using the materials and procedures above described in this Example. The dishes were tared and weighed at the end of 10 days. The results are illustrated in FIG. 6 of the drawings.

| Compound | growth, oat first-internode method [1] | effect as plant growth regulator [2] | growth over the control [3] |
| --- | --- | --- | --- |
| CCCCCCCCCCCCCCCCCCCCCCO [1-docosanol, reference compound] | increase growth | – | – |
| CCCCCCCCCCCCCCCCCCCCCCCCCCCC(=O)O [octocosanoic acid] | – | ineffective | – |
| CCCCCCCCCCCCCCCCCCCCCCCCCCCCO [octocosanol, reference compound] | – | ineffective | no effect on growth |
| CCCCCCCCCCCCCCCCCCCCCCCCCCCCCC [triacontane] | – | ineffective | – |
